From patent publication US9434714B2, “Pyrimidine imidazole amines as modulators of kinase activity” (Merck Patent GmbH, priority 2014, dated 2016) come the findings set out here.

In one assay the target is T1, P70S6K (T412E mutant) (Homo sapiens, UniProt P23443, T412E).
T1 construct: purchased Millipore
The experiment in a line: P70S6K enzyme assay. The format is biochemical. The following applies: 24 μM ATP, 90 min at 25° C., mobility shift (Caliper). The protocol:
P70S6K inhibitor compounds were diluted and plated in 96 well plates. A reaction mixture including the following components was then added to the compound plate to initiate the enzyme reaction; P70S6K (3 nM, T412E mutant, Millipore) was mixed with 24 μM ATP in an assay buffer containing 100 mM Hepes (pH 7.5), 5 mM MgCl2, 1 mM DTT, 0.015% Brij and 1 μM of the substrate peptide FITC-AHA-AKRRRLSSLRA-OH (derived from the S6 ribosomal protein sequence, FITC=fluorescein isothiocyanate, AHA=6-aminohexanoic acid). The reaction was incubated for 90 min at 25° C., before the addition of 10 mM EDTA to stop the reaction. The proportion of substrate and product (phosphorylated) peptide was analysed on a Caliper Life Sciences Lab Chip 3000, using a pressure of −1.4 psi, and upstream and downstream voltages of −3000 and −700 respectively. Product peaks were resolved before substrate peaks on the resulting chromatograms.

The target in another assay is T2, His-AKT (Full Length) (Homo sapiens, UniProt P31749).
T2 construct: His-AKT (Full Length); His; purchased Invitrogen P2999
T2 sequence (P31749 whole entry): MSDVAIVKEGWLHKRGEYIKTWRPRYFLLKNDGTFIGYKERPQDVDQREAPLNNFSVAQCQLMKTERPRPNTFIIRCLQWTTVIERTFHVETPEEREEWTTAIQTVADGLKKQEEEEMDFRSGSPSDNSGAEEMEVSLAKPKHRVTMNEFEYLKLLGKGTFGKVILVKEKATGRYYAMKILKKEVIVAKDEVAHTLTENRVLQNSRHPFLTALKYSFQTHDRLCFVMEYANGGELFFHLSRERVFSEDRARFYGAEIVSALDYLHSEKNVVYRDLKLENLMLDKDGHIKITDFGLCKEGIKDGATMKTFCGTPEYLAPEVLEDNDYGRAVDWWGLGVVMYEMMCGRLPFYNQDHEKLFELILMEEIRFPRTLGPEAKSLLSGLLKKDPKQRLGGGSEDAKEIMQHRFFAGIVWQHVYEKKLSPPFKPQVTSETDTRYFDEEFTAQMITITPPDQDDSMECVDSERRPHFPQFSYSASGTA
The experiment in a line: AKT enzyme assay. In kind it is biochemical. The following applies: 160 uM ATP, 90 min at 25 C, off-chip mobility shift (Caliper). As for the experimental part:
A TTP Mosquito liquid handling instrument was used to place 125 nl of the appropriate concentration of inhibitor in 100% DMSO (for a dose response curve calculation) into each well of a 384-well plate. To this reaction components were added to a final volume of 12.5 μl: • 0.1 ng/μ1 His-AKT (Full Length), (Invitrogen, Part # P2999, Lot #641228C). • 160 uM ATP (Fluka, 02055) • 1 mM DTT (Sigma, D0632) • 1 mM MgCl2 (Sigma, M1028) • 1 μM substrate peptide (sequence FITC-AHA-GRPRTSSFAEG-NH2), synthesized by Tufts Peptide Synthesis service. • 100 mM HEPES pH 7.5 (Calbiochem, 391338) • 0.015% Brij-35 (Sigma, B4184)
The reaction was incubated for 90 min at 25 C, and then stopped by the addition of 70 μl of Stop buffer (100 mM HEPES pH 7.5, 0.015% Brij-35, 10 mM EDTA (Sigma, E7889)).
The plate was read on a Caliper LC 3000 in an Off-Chip mobility shift assay format, using the following parameters for a 12-sipper chip: screening pressure—2.3 psi, upstream voltage—500, and downstream voltage—3000. These conditions cause unphosphorylated substrate and phosphorylated product peptide to resolve as separate peaks allowing direct measurement of percentage of conversion of substrate to product. The percent conversion was plotted against concentration of inhibitor to produce a sigmoidal dose response curve, from which an IC50 was calculated.

The structures appear in SMILES notation.

T1 sequence (P23443 whole entry T412E): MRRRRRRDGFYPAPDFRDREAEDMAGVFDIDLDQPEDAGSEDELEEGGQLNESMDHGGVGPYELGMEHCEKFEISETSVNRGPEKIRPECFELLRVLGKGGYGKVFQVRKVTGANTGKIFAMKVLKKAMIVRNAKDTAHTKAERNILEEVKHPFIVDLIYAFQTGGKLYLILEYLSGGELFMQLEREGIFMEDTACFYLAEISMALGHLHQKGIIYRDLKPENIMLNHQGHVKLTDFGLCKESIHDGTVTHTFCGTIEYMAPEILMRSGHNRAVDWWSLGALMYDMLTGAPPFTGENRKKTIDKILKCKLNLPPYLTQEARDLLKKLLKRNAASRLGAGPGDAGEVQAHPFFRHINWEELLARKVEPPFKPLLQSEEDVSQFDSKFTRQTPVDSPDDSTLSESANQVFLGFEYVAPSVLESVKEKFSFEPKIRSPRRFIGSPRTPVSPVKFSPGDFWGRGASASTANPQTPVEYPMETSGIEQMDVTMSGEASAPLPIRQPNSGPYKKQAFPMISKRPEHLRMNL

For `Cc1cc(-c2cn(CCN3CCC3)c(C3CCN(c4ncnc(N)c4-c4ccn[nH]4)CC3)n2)ccc1F` [Compound 7, 6-{4-[1-(2-Azetidin-1-yl-ethyl)-4-(4-fluoro-3-methyl-phenyl)-1H-imidazol-2-yl]-piperidin-1-yl}-5-(2H-pyrazol-3-yl)-pyrimidin-4-ylamine], the IC50 at P70S6K (T412E mutant) and on His-AKT (Full Length) was 3 to 15 nM in each case.

Consider `CC(C)c1cc(-c2cn(CCN3CCC3)c(C3CCN(c4ncnc(N)c4C(C)C)CC3)n2)ccn1` [Compound 3, 6-{4-[1-(2-Azetidin-1-yl-ethyl)-4-(2-isopropyl-pyridin-4-yl)-1H-imidazol-2-yl]-piperidin-1-yl}-5-isopropyl-pyrimidin-4-ylamine], for which the IC50 at P70S6K (T412E mutant) and at His-AKT (Full Length) was 3 to 15 nM in each case.

As to `CC(C)c1cc(-c2cn(CCN3CCC3)c(C3CCN(c4ncnc(N)c4C4CC4)CC3)n2)ccn1` [Compound 17, 6-{4-[1-(2-Azetidin-1-yl-ethyl)-4-(2-isopropyl-pyridin-4-yl)-1H-imidazol-2-yl]-piperidin-1-yl}-5-cyclopropyl-pyrimidin-4-ylamine], the IC50 at P70S6K (T412E mutant) and at His-AKT (Full Length) was 3 to 15 nM throughout.

In the case of `Cc1cc(-c2cn(CCN(C)C)c(C3CCN(c4ncnc(N)c4Cl)CC3)n2)ccc1F` [Compound 22], the concentration for half-maximal inhibition (IC50) on P70S6K (T412E mutant) and on His-AKT (Full Length) was less than 3 nM in each case.

Regarding `CN(C)CCn1cc(-c2ccnc(C(F)(F)F)c2)nc1C1CCN(c2ncnc(N)c2C(N)=O)CC1` [Compound 30], the IC50 at P70S6K (T412E mutant) and at His-AKT (Full Length) was greater than 15 nM throughout.

On to `CN(C)CCn1cc(-c2ccnc(C(F)(F)F)c2)nc1C1CCN(c2ncnc(N)c2Br)CC1` [Compound 25], for which the IC50 at P70S6K (T412E mutant) and on His-AKT (Full Length) was less than 3 nM in each case.

`CC(C)Oc1c(N)ncnc1N1CCC(c2nc(-c3ccnc(C(F)(F)F)c3)cn2CCN(C)C)CC1` [Compound 28]: the IC50 on P70S6K (T412E mutant) and at His-AKT (Full Length) was 3 to 15 nM each time.

A word on the IC50: it is the concentration at which inhibition is half-maximal.
